Toxic doses and inconclusive results are not listed. The calls were made as follows: active = survival T/C of 150% or more; inactive = T/C below 125% in these data.
Test system: BDF1 mice, P388 leukemia ip, median survival T/C
Test: NCI In Vivo Anticancer Drug Screen. Data for tumor model P388 Leukemia (intraperitoneal) in B6D2F1 (BDF1) mice
Conditions: endpoint: median survival time, higher = longer survival
Summary of the method: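 Reported as T/C, where T is the survival measurement in dosed animals and C the same measurement in vehicle controls.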

[1] = dose: 50.0 mg/kg/injection, schedule: Q01DX009 (ip), vehicle: saline with Tween-80
[2] = dose: 100.0 mg/kg/injection, schedule: Q01DX009 (ip), vehicle: saline with Tween-80
[3] = dose: 200.0 mg/kg/injection, schedule: Q01DX009 (ip), vehicle: saline with Tween-80
[4] = dose: 100.0 mg/kg/injection, schedule: Q04DX003 (ip), vehicle: saline

Measured: T/C

O=C(O)CCSCCC(=O)O
inactive: dose: 100.0 mg/kg/injection, schedule: Q01DX001 (ip), vehicle: Klucel (hydroxypropylcellulose) (HPC) 104 % of control | dose: 100.0 mg/kg/injection, schedule: Q04DX003 (ip), vehicle: Klucel (hydroxypropylcellulose) (HPC) 104 % of control | dose: 200.0 mg/kg/injection, schedule: Q01DX001 (ip), vehicle: Klucel (hydroxypropylcellulose) (HPC) 108 % of control | dose: 200.0 mg/kg/injection, schedule: Q04DX003 (ip), vehicle: Klucel (hydroxypropylcellulose) (HPC) 100 % of control | dose: 400.0 mg/kg/injection, schedule: Q01DX001 (ip), vehicle: Klucel (hydroxypropylcellulose) (HPC) 116 % of control | dose: 400.0 mg/kg/injection, schedule: Q04DX003 (ip), vehicle: Klucel (hydroxypropylcellulose) (HPC) 113 % of control

CCCCOCN(COCCCC)c1cccc([N+](=O)[O-])c1
inactive: [1] 102 % of control | [2] 100 % of control | [3] 111 % of control

COc1ccc(Cc2ccccc2)c(O)c1
inactive: dose: 50.0 mg/kg/injection, schedule: Q01DX009 (ip), vehicle: other 108 % of control | dose: 100.0 mg/kg/injection, schedule: Q01DX009 (ip), vehicle: other 104 % of control | dose: 100.0 mg/kg/injection, schedule: Q04DX003 (ip), vehicle: other 109 % of control | dose: 200.0 mg/kg/injection, schedule: Q01DX009 (ip), vehicle: other 116 % of control | dose: 200.0 mg/kg/injection, schedule: Q04DX003 (ip), vehicle: other 104 % of control | dose: 400.0 mg/kg/injection, schedule: Q04DX003 (ip), vehicle: other 109 % of control

CCCCC(CC)C(=O)[O][Sn]([CH2]CCC)([CH2]CCC)[O]C(=O)C(CC)CCCC (centres undefined)
inactive: dose: 6.25 mg/kg/injection, schedule: Q04DX003 (ip), vehicle: acetone 91 % of control | dose: 12.5 mg/kg/injection, schedule: Q04DX003 (ip), vehicle: acetone 95 % of control

COc1cc2ccc3ccncc3c2cc1OC
inactive: dose: 12.5 mg/kg/injection, schedule: Q01DX009 (ip), vehicle: saline 95 % of control | dose: 25.0 mg/kg/injection, schedule: Q01DX009 (ip), vehicle: saline 100 % of control | dose: 25.0 mg/kg/injection, schedule: Q04DX003 (ip), vehicle: saline 95 % of control | dose: 50.0 mg/kg/injection, schedule: Q01DX009 (ip), vehicle: saline 90 % of control | dose: 50.0 mg/kg/injection, schedule: Q04DX003 (ip), vehicle: saline 113 % of control | [4] 86 % of control

Cc1ccc(S(=O)(=O)N2CC(O)CC2C(=O)O)cc1 (centres undefined)
inactive: dose: 100.0 mg/kg/injection, schedule: Q01DX001 (ip), vehicle: saline with Tween-80 118 % of control | dose: 200.0 mg/kg/injection, schedule: Q01DX001 (ip), vehicle: saline with Tween-80 100 % of control | dose: 400.0 mg/kg/injection, schedule: Q01DX001 (ip), vehicle: saline with Tween-80 113 % of control

OC(OCCCCCCOC(O)C(Cl)(Cl)Cl)C(Cl)(Cl)Cl (centres undefined)
inactive: dose: 100.0 mg/kg/injection, schedule: Q04DX003 (ip), vehicle: saline with Tween-80 95 % of control | dose: 200.0 mg/kg/injection, schedule: Q04DX003 (ip), vehicle: saline with Tween-80 95 % of control | dose: 400.0 mg/kg/injection, schedule: Q04DX003 (ip), vehicle: saline with Tween-80 90 % of control

NC(Cn1cc(N(CCCl)CCCl)c(=O)[nH]c1=O)C(=O)O (centres undefined)
active: dose: 6.0 mg/kg/injection, schedule: Q01DX009 (ip), vehicle: saline 175 % of control | dose: 12.0 mg/kg/injection, schedule: Q01DX009 (ip), vehicle: saline 189 % of control | dose: 24.0 mg/kg/injection, schedule: Q01DX009 (ip), vehicle: saline 215 % of control

N#Cc1cccc(CC(O)(c2ccccc2)c2ccccc2)c1
inactive: [1] 89 % of control | [2] 87 % of control | [3] 95 % of control

CCCCCCCCC1SC1CCCCCCCC(=O)OCCOCCOCC (centres undefined)
inactive: [4] 88 % of control | dose: 200.0 mg/kg/injection, schedule: Q04DX003 (ip), vehicle: saline 88 % of control | dose: 400.0 mg/kg/injection, schedule: Q04DX003 (ip), vehicle: saline 92 % of control

COc1ccc(C(=O)/C=C/c2ccccc2)c(O)c1CC=C(C)C
inactive: dose: 1.25 mg/kg/injection, schedule: Q01DX009 (ip), vehicle: Klucel (hydroxypropylcellulose) (HPC) 114 % of control | dose: 2.5 mg/kg/injection, schedule: Q01DX009 (ip), vehicle: Klucel (hydroxypropylcellulose) (HPC) 118 % of control | dose: 5.0 mg/kg/injection, schedule: Q01DX009 (ip), vehicle: Klucel (hydroxypropylcellulose) (HPC) 91 % of control | dose: 10.0 mg/kg/injection, schedule: Q01DX009 (ip), vehicle: Klucel (hydroxypropylcellulose) (HPC) 91 % of control | dose: 20.0 mg/kg/injection, schedule: Q01DX009 (ip), vehicle: Klucel (hydroxypropylcellulose) (HPC) 95 % of control | dose: 40.0 mg/kg/injection, schedule: Q01DX009 (ip), vehicle: Klucel (hydroxypropylcellulose) (HPC) 91 % of control

From PubChem BioAssay AID328 (DTP/NCI, 2004)
